# Patent publication US20160160264A1, “DIAGNOSTIC IN VITRO METHOD” (UNIVERSITÄT ZU KÖLN, priority 2013, published 2016)
# Biological target: T1, recombinantly expressed and purified TPMT (Homo sapiens, UniProt P51580)
# T1 construct: made in house
# T1 sequence (P51580 1-245): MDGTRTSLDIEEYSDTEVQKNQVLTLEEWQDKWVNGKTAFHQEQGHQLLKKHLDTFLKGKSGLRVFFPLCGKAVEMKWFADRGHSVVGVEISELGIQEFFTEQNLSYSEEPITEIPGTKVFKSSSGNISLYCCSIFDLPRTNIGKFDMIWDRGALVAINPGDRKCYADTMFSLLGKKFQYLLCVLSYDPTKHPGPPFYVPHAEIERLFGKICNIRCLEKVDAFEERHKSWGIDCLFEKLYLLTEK
# Test: Steady state kinetics with purified TPMT (substrate methylation, HPLC analysis)
# Format: biochemical
# Details: compound as substrate of 3 ng/μL purified TPMT; Moco: urothione synthesis in presence of alkaline phosphatase; 6-mercaptopurine: 6-methylmercaptopurine synthesis
# Procedure: (A) Kinetics of the urothione synthesis by TPMT in the presence of alkaline phosphatase. (B) Kinetics of the 6-methylmercaptopurine synthesis by TPMT. (C) Kinetic parameters of the kinetics shown in A and B.
# The in vitro synthesis of urothione in kidney protein extracts is dependent on S-adenosylmethionine and Moco. […] Quantities used: 1.7 μg/μl kidney extract, 5 μM Moco, 500 μM SAM, 250 μM DTT in 0.1 M Tris/HCl pH7.5. The reaction was incubated for 4 h at 37° C. and then heat-denatured for 1 h at 60° for stopping and purified by means of QAE-Sepharose. The eluate was dried up and taken up in the HPLC solvent. HPLC analysis took place on a C4 Reprosil® 100 HPLC column, 150×2 mm, 5 μm particle size (Dr. Maisch GmbH) with 20 mM acetic acid and 15% methanol by isocratic elution. […] The increase of the peak at 24 min elution time indicates the formation of urothione. The increase of the peak at 31 min elution time indicates the formation of jukathione. Quantities used: 20 ng/μl TPMT, 2-16 μM Moco, 500 μM SAM, 250 μM DTT in 0.1 M Tris/HCl pH7.5. The reaction was incubated for 1 h at 37° C. and then heat-denatured for 1 h at 60° for stopping. The eluate was dried up and taken up in the HPLC solvent. HPLC analysis took place on a YMC C18 Hydrosphere@ column, 250×4 mm, 5 μm particle size with 20 mM formic acid by elution in a methanol gradient (0-25% 20 min, 1 mL/min). […] The in vitro transformation of Moco by means of liver extracts into urothione in the presence and absence of the TPMT inhibitor 3,4,5-triiodo benzoic acid is shown in FIG. 4. […] The in vitro transformation of Moco by purified TPMT into jukathione in the presence and absence of the TPMT inhibitor 3,4,5-triiodo benzoic acid is shown in FIG. 5. An HPLC chromatogram is shown of the analysis of jukathione after the incubation of purified 1 ng/μL TPMT with 500 μM SAM, 250 μM DTT and 10 μM Moco in the presence and absence of 2.5 μM 3,4,5-triiodo benzoic acid (inhibitor). […] What is depicted is the in vitro synthesis of urothione in protein extracts from RBCs from individuals with a normal TPMT activity (wild type) and persons with heterozygous mutations in the TPMT gene locus (heterozygous), and one person with a homozygous mutation (homozygous) in the TPMT gene locus. […] What is shown is the determination of the urothione content in individuals with a normal TPMT activity (wild type) and persons with heterozygous mutations in the TPMT gene locus (heterozygous), and two persons with homozygous mutations (homozygous) in the TPMT gene locus.
# Urothione detection: 10 μM Moco (isolated from heat-denaturated human sulfite oxidase) are incubated in 50 mM Tris/HCl, pH 7.2, 1 mM SAM, 250 μM dithiothreitol and 1.7 μg/μL liver protein extract or 3.4 μg/μL RBCs for 4 h at 37° C. […]
SMILES,KM [µM],kcat [s⁻¹]
Nc1nc2c(c(=O)[nH]1)NC1C3=C([S][Mo](=[O])(=[O])([O-])[S]3)C(COP(=O)([O-])O)OC1N2 (stereo not shown) [Moco],2,0.129
Sc1ncnc2nc[nH]c12 [6-mercaptopurine],69,0.047
